According to US20040005652A1 (priority 2002, published 2004):

Columns and labels:
B. thuringiensis = settings: cited from earlier work
B. anthrasis = settings: cited from earlier work
B. cereus = settings: cited from earlier work
[1] = test system: Bacillus thuringiensis ATCC 10792; assay type: cell-based
[2] = test system: Bacillus cereus ATCC 14579; assay type: cell-based
[3] = test system: Bacillus anthrasis AMES-RIID and ANR-1; assay type: cell-based

Molecule | colony colour, B. thuringiensis (B. thuringiensis) | colony colour, B. anthrasis (B. anthrasis) | colony colour, B. cereus (B. cereus) | Bacillus thuringiensis ATCC 10792 Colonial Morphologies 48 hours [1] | Bacillus cereus ATCC 14579 Colonial Morphologies 48 hours [2] | Bacillus anthrasis AMES-RIID and ANR-1 Colonial Morphologies 48 hours [3]
O=P(O)(Oc1c[nH]c2ccc(Br)c(Cl)c12)OC1C(O)C(O)C(O)C(O)C1O (stereo not drawn) [5-bromo-4-chloro-3-indoxyl-myo-inositol-1-phosphate] | turquoise colonies | white colonies | turquoise colonies |  |  | 
Manganese chloride |  |  |  | turquoise colonies with a narrow rim | turquoise colonies with a narrow rim | cream color colony with a blue dot in the center
